Source: US20240217983A1, “GPR119 AGONISTS” (Kallyope, Inc., priority 2021, published 2024)

Target: T1, human GPR119 (hGPR119) (Homo sapiens, UniProt Q8TDV5)
T1 construct: expressed in transfected cells
T1 sequence (Q8TDV5 1-335): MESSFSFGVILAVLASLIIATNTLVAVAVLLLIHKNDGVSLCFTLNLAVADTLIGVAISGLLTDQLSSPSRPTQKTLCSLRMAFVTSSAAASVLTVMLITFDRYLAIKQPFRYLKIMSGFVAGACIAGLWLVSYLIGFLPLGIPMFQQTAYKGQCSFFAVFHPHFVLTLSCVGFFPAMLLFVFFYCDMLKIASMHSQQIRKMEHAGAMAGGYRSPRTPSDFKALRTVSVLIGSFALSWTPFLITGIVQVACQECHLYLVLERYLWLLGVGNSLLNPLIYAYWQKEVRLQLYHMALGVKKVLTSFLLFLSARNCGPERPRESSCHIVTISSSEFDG
Experiment: cAMP accumulation assay (Cisbio cAMP Gs dynamic HTRF kit) in CHO-K1 cells stably expressing human GPR119
Type: cell-based
Settings: 4-parameter fit; for Emax: 1 h, % activity normalized to Max and Min controls; for EC50: 60 minutes at 37° C.
Description: CHO-K1 cells stably expressing human GPR119 (hGPR119) were prepared by transfection of a GPR119-carrying plasmid using Lipofectamine 2000 (following manufacturer instructions). A stable cell line was established using the limiting dilution method with geneticine selection. Assay-ready frozen (ARF) cells were prepared and used throughout the study.
The assay was performed in a 384-well plate format using the cAMP Gs dynamic assay kit from Cisbio. ARF cells expressing hGPR119 were thawed, washed and then resuspended in cAMP stimulation buffer at a cell density of 1.1×10^6 cells/mL. Cells were plated at a density of ˜10,000 cells/well (9 μL/well). Dose response curves for the tested compounds were prepared in a cAMP stimulation buffer, containing 0.1% Tween 80 at 4 fold the final concentration. The compounds were then transferred to the cell plates using BRAVO (3 μL/well) and the plates were incubated for 60 minutes at 37° C./5% CO2. Detection buffer (10 μL, prepared as described in the cAMP Gs dynamic kit) were added to each well, and the plates were incubated at ambient temperature for 1 hr.
RT-FRET was measured using a ClarioSTAR plate reader, calculating the ratio between emissions at 665 nm and 620 nm (HTRF ratio). The HTRF ratio for positive (Max) and negative (Min) controls were used to normalize HTRF data and generate values for % activity. EC50 and Max activity values were determined using a standard 4-parameter fit.

Row | SMILES | Emax [%] | EC50 [nM]
1 | O=C(Cc1ccc(OCCCC2CCN(c3ncc(Cl)cn3)CC2)cc1F)N1C[C@@H]2CN(C[C@H](O)[C@@H](O)[C@H](O)[C@H](O)CO)C[C@@H]21 [Example 39, 2-(4-(3-(1-(5-chloropyrimidin-2-yl)piperidin-4-yl)propoxy)-2-fluorophenyl)-1-((1S,5R)-3-((2S,3R,4R,5R)-2,3,4,5,6-pentahydroxyhexyl)-3,6-diazabicyclo[3.2.0]heptan-6-yl)ethan-1-one] | 100 to 130 | ≤ 100
2 | COCc1cnc(N2CCC(CCCCOc3ccc(CC(=O)N4CCN(C[C@H](O)[C@@H](O)[C@H](O)[C@H](O)CO)CC4)c(F)c3)CC2)nc1 [Example 100, 2-(2-fluoro-4-(4-(1-(5-(methoxymethyl)pyrimidin-2-yl)piperidin-4-yl)butoxy)phenyl)-1-(4-((2S,3R,4R,5R)-2,3,4,5,6-pentahydroxyhexyl)piperazin-1-yl)ethan-1-one] | 100 to 130 | 100 to 1000
3 | O=C(Cc1ccc(OCCCC2CCN(c3ncc(Cl)cn3)CC2)cc1F)N1CC2(CCN2C[C@H](O)[C@H](O)[C@H](O)CO)C1 [Example 32, 2-(4-(3-(1-(5-chloropyrimidin-2-yl)piperidin-4-yl)propoxy)-2-fluorophenyl)-1-(1-((2S,3S,4R)-2,3,4,5-tetrahydroxypentyl)-1,6-diazaspiro[3.3]heptan-6-yl)ethan-1-one] | 100 to 130 | ≤ 100
4 | O=C(Cc1ccc(OCCCC2CCN(c3ncc(Cl)cn3)CC2)cc1F)N1C[C@H]2CN(C[C@H](O)[C@H](O)[C@H](O)CO)C[C@H]2C1 [Example 44, 2-(4-(3-(1-(5-chloropyrimidin-2-yl)piperidin-4-yl)propoxy)-2-fluorophenyl)-1-((3aR,6aS)-5-((2S,3S,4R)-2,3,4,5-tetrahydroxypentyl)hexahydropyrrolo[3,4-c]pyrrol-2(1H)-yl)ethan-1-one] | 100 to 130 | ≤ 100

The next lines start with the values.

Row | Emax [%] | EC50 [nM] | SMILES
5 | ≥ 130 | ≤ 100 | O=C(Cc1ccc(OCCCC2CCN(c3ncc(Cl)cn3)CC2)cc1F)N1CC2(CCCN2C[C@H](O)[C@@H](O)[C@H](O)[C@H](O)CO)C1 [Example 61, 2-(4-(3-(1-(5-chloropyrimidin-2-yl)piperidin-4-yl)propoxy)-2-fluorophenyl)-1-(5-((2S,3R,4R,5R)-2,3,4,5,6-pentahydroxyhexyl)-2,5-diazaspiro[3.4]octan-2-yl)ethan-1-one]
6 | 100 to 130 | ≤ 100 | O=C(Cc1ccc(OCCCC2CCN(c3ncc(Cl)cn3)CC2)cc1F)N1C[C@@H]2C[C@H]1CN2C[C@H](O)[C@H](O)[C@H](O)CO [Example 54, 2-(4-(3-(1-(5-chloropyrimidin-2-yl)piperidin-4-yl)propoxy)-2-fluorophenyl)-1-((1S,4S)-5-((2S,3S,4R)-2,3,4,5-tetrahydroxypentyl)-2,5-diazabicyclo[2.2.1]heptan-2-yl)ethan-1-one]
7 | 100 to 130 | ≤ 100 | CCCc1cnc(N2CCC(CCCOc3ccc(CC(=O)N4CCN(C[C@H](O)[C@@H](O)[C@H](O)[C@H](O)CO)CC4)c(F)c3)CC2)nc1 [Example 94, 2-(2-fluoro-4-(3-(1-(5-propylpyrimidin-2-yl)piperidin-4-yl)propoxy)phenyl)-1-(4-((2S,3R,4R,5R)-2,3,4,5,6-pentahydroxyhexyl)piperazin-1-yl)ethan-1-one]
8 | 100 to 130 | ≤ 100 | O=C(Cc1ccc(OCCCC2CCN(c3ncc(Cl)cn3)CC2)cc1F)N1CCC2(CC1)CCN2C[C@H](O)[C@@H](O)[C@H](O)[C@H](O)CO [Example 68, 2-(4-(3-(1-(5-chloropyrimidin-2-yl)piperidin-4-yl)propoxy)-2-fluorophenyl)-1-(1-((2S,3R,4R,5R)-2,3,4,5,6-pentahydroxyhexyl)-1,7-diazaspiro[3.5]nonan-7-yl)ethan-1-one]
